Data reported in PubChem BioAssay (NCI).
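Cultured in 96-well plates, cells were exposed to test compound for 48 hours across five concentrations. GI50 marks 50% less growth. TGI is the concentration that stops growth completely.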

Key:
Assay in all cases: growth of human tumour cells (NCI), 48 h
[1] = tested on: MDA-MB-468 breast
[2] = tested on: OVCAR-3 ovarian
[3] = tested on: HL-60(TB) leukemia
[4] = tested on: SNB-19 CNS
[5] = tested on: EKVX NSCLC
[6] = tested on: HS 578T breast
[7] = tested on: SN12C renal
[8] = tested on: UO-31 renal
[9] = tested on: A498 renal
[10] = tested on: SF-268 CNS
[11] = tested on: PC-3 prostate
[12] = tested on: 786-0 renal
[13] = tested on: CCRF-CEM leukemia
[14] = tested on: SK-MEL-28 melanoma
[15] = tested on: OVCAR-5 ovarian
[16] = tested on: NCI-H226 lung
[17] = tested on: TK-10 renal
[18] = tested on: HOP-62 NSCLC
[19] = tested on: BT-549 breast
[20] = tested on: HOP-92 NSCLC
[21] = tested on: SR leukemia
[22] = tested on: OVCAR-4 ovarian
[23] = tested on: MOLT-4 leukemia
[24] = tested on: CAKI-1 renal
[25] = tested on: SK-OV-3 ovarian
[26] = tested on: SNB-75 CNS
[27] = tested on: UACC-62 melanoma
[28] = tested on: T-47D breast
[29] = tested on: DU-145 prostate

Question: Which results are given for `CCCCCCCC/C=C/CCCCCCCC(=O)OC[C@H]1O[C@@H](n2ccc(N)nc2=O)C(F)(F)[C@@H]1O`?
Answer: GI50 [1]: < 0.0289 µM; TGI [1]: 3.76 µM

Question: What does the source list for `COC(=O)[C@H](C)NC(=O)NC(=O)NC(=O)CI`?
Answer: GI50 [1]: 9.14 µM; TGI [1]: 23.5 µM

Question: What does the source list for `c1cc(CNC23CC4CC(CC(C4)C2)C3)cc(C[N+](Cc2cccc(CNC34CC5CC(CC(C5)C3)C4)c2)(Cc2cccc(CNC34CC5CC(CC(C5)C3)C4)c2)Cc2cccc(CNC34CC5CC(CC(C5)C3)C4)c2)c1` (stereo not drawn)?
Answer: GI50 [1]: 3.33 µM; TGI [1]: 7.03 µM

Question: `COc1nc2ccccc2cc1-c1nc2c(cnn2-c2ccc(Br)cc2)c(=O)[nH]1` was tested. Which GI50 [1] did it give?
Answer: 0.0219 µM

Question: And the TGI [1]?
Answer: 0.616 µM

Question: `C[C@@]12CC=C3c4nc(Nc5cccc(O)c5)sc4CC[C@]3(C)[C@H]1CC[C@]1(C)C(=O)CC[C@@H]21` was tested. Which GI50 [1] did it give?
Answer: 2.29 µM

Question: And the TGI [1]?
Answer: 5.21 µM

Question: `COC(=O)[C@@H](C)CNS(=O)(=O)N(c1cc(C(F)(F)F)cc(C(F)(F)F)c1)C1CCN(Cc2ccc(F)cc2)CC1` was tested. Which GI50 [1] did it give?
Answer: 3.25 µM

Question: What about the TGI [1] of the same molecule?
Answer: 15.3 µM

Question: With `CN1CCN(Cc2ccc(NC(=O)c3cncc(C#Cc4cnc5ccc(O[C@@H]6CCOC6)nn45)c3)cc2C(F)(F)F)CC1` as the molecule, how does the GI50 [1] read?
Answer: 0.209 µM

Question: What about the TGI [1] of the same molecule?
Answer: 0.834 µM

Question: With `O=C1OC(C(O)CO)C(=O)C1=O` (stereo not drawn) as the molecule, how does the GI50 [1] read?
Answer: 1810 µM

Question: What about the TGI [1] of the same molecule?
Answer: 4350 µM

Question: `CC(C)n1nc(-c2cc3cc(O)ccc3[nH]2)c2c(N)ncnc21` was tested. Which GI50 [1] did it give?
Answer: 0.163 µM

Question: What about the TGI [1] of the same molecule?
Answer: 1.01 µM

Question: Which results are given for `COc1cc(-c2ccc3c(c2)NC(=O)/C3=C\c2ccc[nH]2)ccc1O`?
Answer: GI50 [1]: 0.179 µM; TGI [1]: > 50 µM

Question: `NS(=O)(=O)c1ccc(N=Nc2c(O)[nH]c3ccc(-c4cnco4)cc23)cc1` was tested. Which GI50 [1] did it give?
Answer: > 25 µM

Question: What about the TGI [1] of the same molecule?
Answer: > 25 µM

Question: With `CN1CCN(CCCOc2ccc3nc(Nc4ccc(Cl)c(C(F)(F)F)c4)ccc3c2)CC1` as the molecule, how does the GI50 [1] read?
Answer: 12.2 µM

Question: What about the TGI [1] of the same molecule?
Answer: 26.9 µM

Question: Which GI50 [1] does the source give for `O=C(NC1=CC(=O)c2ccccc2C1=O)c1ccccc1` here?
Answer: 1.08 µM

Question: What about the TGI [1] of the same molecule?
Answer: 2.41 µM

Question: `COc1ccc(-c2n[nH]nc2-c2cc(OC)c(OC)c(OC)c2)cc1` was tested. Which GI50 [1] did it give?
Answer: < 0.01 µM

Question: What about the TGI [1] of the same molecule?
Answer: < 0.01 µM

Question: `COc1cc2c(c(OC)c1OC)-c1ccc(OC)c(=O)cc1[C@@H](NC(=O)c1ccccc1)CC2` was tested. Which GI50 [1] did it give?
Answer: 0.0552 µM

Question: And the TGI [1]?
Answer: > 100 µM

Question: With `COc1ccc(Cn2cc3c(c2-c2ccccc2)CC(C)(C)c2cnoc2-3)cc1` as the molecule, how does the GI50 [1] read?
Answer: 0.542 µM

Question: What about the TGI [1] of the same molecule?
Answer: 5.91 µM

Question: `CCCCC(O)(c1ccc(Cl)cc1)C(CN1CCOCC1)c1ccc(Cl)cc1` (stereo not drawn) was tested. Which GI50 [1] did it give?
Answer: 11.2 µM

Question: What about the TGI [1] of the same molecule?
Answer: 25.9 µM

Question: With `COc1cc(/C=C/c2cc(/C=C/c3ccc(O)c(OC)c3)n(C(=O)Nc3ccc(F)c(Cl)c3)n2)ccc1O` as the molecule, how does the GI50 [1] read?
Answer: 0.266 µM

Question: And the TGI [1]?
Answer: 0.829 µM

Question: How did the GI50 [1] turn out when `O=C(N/N=C/c1ccc(Cl)cc1)c1ccc(C(F)(F)F)nc1Nc1cccc(C(F)(F)F)c1` was run?
Answer: 1.12 µM

Question: What about the TGI [1] of the same molecule?
Answer: 4.28 µM

Question: For `CN1C/C=C\CCOc2cccc(c2)-c2ccnc(n2)Nc2cccc(c2)C1`, which GI50 [1] is on record?
Answer: 0.0642 µM

Question: And the TGI [1]?
Answer: 0.289 µM

Question: How did the GI50 [1] turn out when `NC(=O)c1c(NC(=O)c2ccc(C(F)(F)F)cc2)sc2c1CCC(=O)C2` was run?
Answer: 1.66 µM

Question: And the TGI [1]?
Answer: 4.22 µM

Question: `CN(C)C(=O)c1cc2cnc(Nc3ccc(-c4csc5c(=S)cc(N6CCOCC6)oc45)cc3)nc2n1C1CCCC1` was tested. Which GI50 [1] did it give?
Answer: 0.397 µM

Question: What about the TGI [1] of the same molecule?
Answer: 2.37 µM

Question: What does the source list for `COc1cc2nc3cc([N+](=O)[O-])ccc3c(NCCCNCCO)c2cc1OC`?
Answer: GI50 [1]: 0.193 µM; TGI [1]: 0.467 µM

Question: For `CNc1ccc(C(=O)CC(O)CCC(C)C2OC(=O)CC(O)CC(=O)CC(O)CC(O)CC(O)CC(O)CC3(O)CC(O)C(C(=O)OC)C(CC(O[C@@H]4O[C@H](C)[C@@H](O)[C@H](N)[C@@H]4O)/C=C/C=C/C=C/C=C/C=C/C=C/C=C/C2C)O3)cc1` (stereo partly drawn), which GI50 [1] is on record?
Answer: 5.14 µM

Question: And the TGI [1]?
Answer: 25 µM

Question: Which results are given for `CCOC(=O)[C@@H](N)CCC(=O)N[C@@H](CSCc1ccccc1)C(=O)N[C@@H](C(=O)OCC)c1ccccc1`?
Answer: GI50 [1]: 11.9 µM; TGI [1]: 24.9 µM

Question: What does the source list for `CNCc1cccc2c1OCCCCCC[C@@](C)(O)CC1(CC1)S(=O)(=O)c1ccc(cc1)-c1cnc(N)c(n1)C(=O)N2`?
Answer: GI50 [2]: 1.26 µM; TGI [2]: 4.73 µM; GI50 [3]: 0.0197 µM; TGI [3]: 0.324 µM; GI50 [4]: 1.88 µM; TGI [4]: 4.36 µM; GI50 [5]: 1.42 µM; TGI [5]: 4.86 µM; GI50 [6]: 0.28 µM; TGI [6]: 4.3 µM; GI50 [7]: 1.26 µM; TGI [7]: 13.9 µM; GI50 [8]: 0.0741 µM; TGI [8]: 2.15 µM; GI50 [9]: 3.93 µM; TGI [9]: 25.4 µM; GI50 [10]: 1.41 µM; TGI [10]: 4.18 µM; GI50 [11]: 0.599 µM; TGI [11]: 3.82 µM; GI50 [12]: 0.0536 µM; TGI [12]: 14.2 µM; GI50 [13]: 0.0102 µM; TGI [13]: 0.634 µM; GI50 [14]: 1.3 µM; TGI [14]: 2.65 µM; GI50 [15]: 2 µM; TGI [15]: 5.82 µM; GI50 [16]: 1.53 µM; TGI [16]: 4.18 µM; GI50 [17]: 1.55 µM; TGI [17]: 18.6 µM; GI50 [18]: 1.98 µM; TGI [18]: 4.65 µM; GI50 [19]: 0.716 µM; TGI [19]: 14.5 µM; GI50 [20]: 1.82 µM; TGI [20]: 4.55 µM; TGI [21]: 0.173 µM; GI50 [22]: 2.93 µM; TGI [22]: 26.3 µM; GI50 [23]: 0.0102 µM; TGI [23]: 2.19 µM; GI50 [24]: 0.365 µM; TGI [24]: 5.76 µM; GI50 [25]: 1.54 µM; TGI [25]: 19.4 µM; GI50 [26]: 0.213 µM; TGI [26]: 16.3 µM; GI50 [27]: 1.6 µM; TGI [27]: 3.06 µM; GI50 [28]: 3.24 µM; TGI [28]: > 88.8 µM; GI50 [29]: 1.03 µM; TGI [29]: 2.88 µM

Question: With `CC(C)(C)c1cc(C(C)(C)C)cc(S(=O)(=O)Nc2cc3ccccc3cc2C(=O)NCCN)c1` as the molecule, how does the GI50 [1] read?
Answer: 1.85 µM

Question: And the TGI [1]?
Answer: 3.39 µM

Question: Which results are given for `COc1cc2ncnc(Nc3ccc(C)c(O)c3)c2cc1OC`?
Answer: GI50 [1]: 2.39 µM; TGI [1]: 8.87 µM

Question: `COc1ccccc1CNCCCN1C(=O)c2ccc3c4c(ccc(c24)C1=O)C(=O)N(CCCOCCCCOCCCN)C3=O` was tested. Which GI50 [1] did it give?
Answer: 0.288 µM

Question: What about the TGI [1] of the same molecule?
Answer: 1.32 µM

Question: How did the GI50 [1] turn out when `C=C1C(=O)O[C@H]2[C@H]1CC/C(COC(=O)C(=O)c1cn(Cc3ccccc3)c3ccccc13)=C\CC[C@@]1(C)O[C@@H]21` was run?
Answer: 1.88 µM

Question: What about the TGI [1] of the same molecule?
Answer: 3.8 µM
